In patent publication US5618681A, “Polyaromatic hydrocarbon (PAH) immunoassay method, its components and a kit for use in performing the same” (priority 1995, dated 1997):

System: anti-PAH monoclonal antibody
Experiment: PAH immunoassay (competitive, antibody coated tubes): cross-reactivity with the anti-PAH monoclonal antibody
Assay type: binding, Balb/c mice
Conditions: for Percent Cross-Reactivity: phenanthrene 100%; for detection in the immunoassay: at 200 ppm levels
Protocol: Female Balb/c mice received a primary subcutaneous immunization with 50 ug of β-methylnaphthalene derivatized to bovine serum albumin in adjuvant (MPL+TDM Emulsion, RIBI Immunochem Research, Inc., Hamilton, Mont.). Subcutaneous secondary injections (25 ug) were given at day 21, 35, and then monthly. […] Hybridoma cultures producing monoclonal antibodies recognizing free hapten by EIA were cloned by limiting dilution.
Antibody coated tubes were prepared by passively coating polystyrene (12X75 mm, NUNC) tubes with the monoclonal F12-3C8 antibody diluted in PBS and incubating overnight. The NUNC polystyrene tubes were rinsed with hexane prior to use and were all from the same lot.
10 g of a soil sample were placed in an extraction vial containing 20 mL of methanol and 5 steel pellets (6 mm) and the vial and its contents shaken for 1 minute to disperse the soil particles and extract the PAHs. The sample was then filtered to clarify the sample extract using a glass fiber depth filter and a 0.45μ Teflon filter. 45 uL of the clarified filtrate sample was mixed with 955 μl of 10 mM PBS (pH=7.4) and the resulting mixture added to lyophilized enzyme conjugate reagent (0.3 μg) and mixed. At the same time, 2×45 uL of the phenanthrene standard are similarly treated. The sample and the two standards were then poured into three identical antibody coated tubes, respectively, and the resulting solution mixed. The resulting solution was incubated for 10 minutes at ambient temperature and then washed 4X with a wash buffer (detergent-saline solution). 250 uL of tetramethylbenzidene solution (KP Laboratories, Cat. No. 50-76-02) was added along with 250 uL of hydrogen peroxide solution (KPL, Cat. No. 50-65-02) and the resultant solution mixed. After incubating for 2.5 minutes the color development reaction was stopped with 250 uL of stop solution (1M sulfuric acid).
The optical density (OD) of the test sample was compared to the OD of the phenanthrene standard (0.65 ppm soil equivalents) which was tested simultaneously with the sample. If the sample OD is less than the standard OD, the sample contains more than 1 ppm PAH. […] Other concentration ranges can be assessed by diluting the test samples with suitable diluents, as long as they are non-reactive with the components of the assay.
In addition other potentially cross-reactive compounds were tested.

[1] = Non-EPA PAHs and other compounds

Question: For Clc1cccc2ccccc12 [1-chloronaphthalene], which “Percent Cross-Reactivity” value [1] is on record?
Answer: 1.7%

Question: And the “Concentration Giving a Positive Result (ppm, soil equivalent)” value [1]?
Answer: 59 ppm

Question: Which results are given for Cc1cccc2ccccc12 [1-methylnaphthalene]?
Answer: Percent Cross-Reactivity [1]: 1.8%; Concentration Giving a Positive Result (ppm, soil equivalent) [1]: 54 ppm

Question: For Clc1cc(Cl)c(Cl)cc1Cl [2,3,5,6-Tetrachlorobenzene], which “Percent Cross-Reactivity” value [1] is on record?
Answer: < 0.5%

Question: What about the “Concentration Giving a Positive Result (ppm, soil equivalent)” value [1] of the same compound?
Answer: > 200 ppm

Question: Which “Percent Cross-Reactivity” value [1] does the source give for Clc1cc(Cl)cc(Cl)c1 [2,4,6-Trichlorobenzene] here?
Answer: < 0.5%

Question: And the “Concentration Giving a Positive Result (ppm, soil equivalent)” value [1]?
Answer: > 200 ppm

Question: Which “Percent Cross-Reactivity” value [1] does the source give for Cc1ccc2ccccc2c1 [2-methylnaphthalene] here?
Answer: 1.7%

Question: And the “Concentration Giving a Positive Result (ppm, soil equivalent)” value [1]?
Answer: 58 ppm

Question: How did the “Percent Cross-Reactivity” value (Method 8310 EPA PAHs) turn out when c1cc2c3c(cccc3c1)CC2 [Acenaphthene] was run?
Answer: 12%

Question: And the “Concentration Giving A Positive Result (ppm, soil equivalent)” value (Method 8310 EPA PAHs)?
Answer: 8.1 ppm

Question: What does the source list for C1=Cc2cccc3cccc1c23 [Acenaphthylene]?
Answer: Percent Cross-Reactivity (Method 8310 EPA PAHs): 13%; Concentration Giving A Positive Result (ppm, soil equivalent) (Method 8310 EPA PAHs): 7.5 ppm

Question: c1ccc2cc3ccccc3cc2c1 [Anthracene] was tested. Which “Percent Cross-Reactivity” value (Method 8310 EPA PAHs) did it give?
Answer: 123%

Question: And the “Concentration Giving A Positive Result (ppm, soil equivalent)” value (Method 8310 EPA PAHs)?
Answer: 0.81 ppm

Question: Which “Percent Cross-Reactivity” value [1] does the source give for c1ccccc1 [Benzene] here?
Answer: < 0.5%

Question: And the “Concentration Giving a Positive Result (ppm, soil equivalent)” value [1]?
Answer: > 200 ppm

Question: And the “detection in the immunoassay” value?
Answer: not detected

Question: Which results are given for c1ccc2cc3c(ccc4ccccc43)cc2c1 [Benzo(a)anthracene]?
Answer: Percent Cross-Reactivity (Method 8310 EPA PAHs): 64%; Concentration Giving A Positive Result (ppm, soil equivalent) (Method 8310 EPA PAHs): 1.6 ppm

Question: Which results are given for c1ccc2c(c1)cc1ccc3cccc4ccc2c1c34 [Benzo(a)pyrene]?
Answer: Percent Cross-Reactivity (Method 8310 EPA PAHs): 12%; Concentration Giving A Positive Result (ppm, soil equivalent) (Method 8310 EPA PAHs): 8.3 ppm; concentration in soil at which the PAH immunoassay will provide a positive result (in soils): ≥ 8.3 ppm

Question: c1ccc2c(c1)-c1cccc3c1c-2cc1ccccc13 [Benzo(b)fluoranthene] was tested. Which “Percent Cross-Reactivity” value (Method 8310 EPA PAHs) did it give?
Answer: 22%

Question: And the “Concentration Giving A Positive Result (ppm, soil equivalent)” value (Method 8310 EPA PAHs)?
Answer: 4.6 ppm

Question: What does the source list for c1cc2ccc3ccc4ccc5cccc6c(c1)c2c3c4c56 [Benzo(ghi)perylene]?
Answer: Percent Cross-Reactivity (Method 8310 EPA PAHs): < 0.5%; Concentration Giving A Positive Result (ppm, soil equivalent) (Method 8310 EPA PAHs): > 200 ppm

Question: For c1ccc2cc3c(cc2c1)-c1cccc2cccc-3c12 [Benzo(k)fluoranthene], which “Percent Cross-Reactivity” value (Method 8310 EPA PAHs) is on record?
Answer: 11%

Question: What about the “Concentration Giving A Positive Result (ppm, soil equivalent)” value (Method 8310 EPA PAHs) of the same compound?
Answer: 9.4 ppm

Question: With CCCCC(CC)COC(=O)c1ccccc1C(=O)OCC(CC)CCCC (centres unmarked) [Bis(2-ethylhexyl) phthalate] as the compound, how does the “Percent Cross-Reactivity” value [1] read?
Answer: < 0.5%

Question: And the “Concentration Giving a Positive Result (ppm, soil equivalent)” value [1]?
Answer: > 200 ppm

Question: c1ccc2c(c1)ccc1c3ccccc3ccc21 [Chrysene] was tested. Which “Percent Cross-Reactivity” value (Method 8310 EPA PAHs) did it give?
Answer: 84%

Question: What about the “Concentration Giving A Positive Result (ppm, soil equivalent)” value (Method 8310 EPA PAHs) of the same compound?
Answer: 1.2 ppm

Question: With c1ccc2c(c1)ccc1cc3c(ccc4ccccc43)cc12 [Dibenzo(a,h)anthracene] as the compound, how does the “Percent Cross-Reactivity” value (Method 8310 EPA PAHs) read?
Answer: < 0.5%

Question: What about the “Concentration Giving A Positive Result (ppm, soil equivalent)” value (Method 8310 EPA PAHs) of the same compound?
Answer: > 200 ppm

Question: For c1ccc2c(c1)oc1ccccc12 [Dibenzofuran], which “Percent Cross-Reactivity” value [1] is on record?
Answer: 7.2%

Question: What about the “Concentration Giving a Positive Result (ppm, soil equivalent)” value [1] of the same compound?
Answer: 14 ppm

Question: For c1ccc2c(c1)-c1cccc3cccc-2c13 [Fluoranthene], which “Percent Cross-Reactivity” value (Method 8310 EPA PAHs) is on record?
Answer: 73%

Question: What about the “Concentration Giving A Positive Result (ppm, soil equivalent)” value (Method 8310 EPA PAHs) of the same compound?
Answer: 1.4 ppm

Question: How did the “Percent Cross-Reactivity” value (Method 8310 EPA PAHs) turn out when c1ccc2c(c1)Cc1ccccc1-2 [Fluorene] was run?
Answer: 67%

Question: And the “Concentration Giving A Positive Result (ppm, soil equivalent)” value (Method 8310 EPA PAHs)?
Answer: 1.5 ppm

Question: How did the “Percent Cross-Reactivity” value (Method 8310 EPA PAHs) turn out when c1ccc2c(c1)-c1ccc3ccc4cccc5cc-2c1c3c45 [Indeno(1,2,3-cd)pyrene] was run?
Answer: 9.4%

Question: What about the “Concentration Giving A Positive Result (ppm, soil equivalent)” value (Method 8310 EPA PAHs) of the same compound?
Answer: 11 ppm

Question: Which “Percent Cross-Reactivity” value (Method 8310 EPA PAHs) does the source give for c1ccc2ccccc2c1 [Naphthalene] here?
Answer: 0.5%

Question: What about the “Concentration Giving A Positive Result (ppm, soil equivalent)” value (Method 8310 EPA PAHs) of the same compound?
Answer: 200 ppm

Question: For Clc1cc(Cl)c(Cl)c(Cl)c1Cl [Pentachlorobenzene], which “Percent Cross-Reactivity” value [1] is on record?
Answer: < 0.5%

Question: And the “Concentration Giving a Positive Result (ppm, soil equivalent)” value [1]?
Answer: > 200 ppm

Question: For Oc1c(Cl)c(Cl)c(Cl)c(Cl)c1Cl [Pentachlorophenol], which “Percent Cross-Reactivity” value [1] is on record?
Answer: < 0.5%

Question: And the “Concentration Giving a Positive Result (ppm, soil equivalent)” value [1]?
Answer: > 200 ppm

Question: What does the source list for c1ccc2c(c1)ccc1ccccc12 [Phenanthrene, reference compound]?
Answer: Percent Cross-Reactivity (Method 8310 EPA PAHs): 100%; Concentration Giving A Positive Result (ppm, soil equivalent) (Method 8310 EPA PAHs): 1.0 ppm

Question: For Oc1ccccc1 [Phenol], which “Percent Cross-Reactivity” value [1] is on record?
Answer: < 0.5%

Question: What about the “Concentration Giving a Positive Result (ppm, soil equivalent)” value [1] of the same compound?
Answer: > 200 ppm

Question: What about the “detection in the immunoassay” value of the same compound?
Answer: not detected

Question: Which results are given for c1cc2ccc3cccc4ccc(c1)c2c34 [Pyrene]?
Answer: Percent Cross-Reactivity (Method 8310 EPA PAHs): 29%; Concentration Giving A Positive Result (ppm, soil equivalent) (Method 8310 EPA PAHs): 3.5 ppm

Question: Which results are given for Cc1ccccc1 [Toluene]?
Answer: Percent Cross-Reactivity [1]: < 0.5%; Concentration Giving a Positive Result (ppm, soil equivalent) [1]: > 200 ppm
